Experimental data taken from patent US10821152B2, “Methods, agents and compositions for treatment of inflammatory conditions” (Betanien Hospital, priority 2014, dated 2020).
Read-outs that look alike come from different tables or passages of the source. Non-standard residues stand in square brackets, D forms with d. Residues, ends and D or L forms follow the SMILES beside them. dPhe(4-Cl) = N[C@H](Cc1ccc(Cl)cc1)C(=O)O; d2Nal = N[C@H](Cc1ccc2ccccc2c1)C(=O)O; dCit = NC(=O)NCCC[C@@H](N)C(=O)O; d3Pal = N[C@H](Cc1cccnc1)C(=O)O

Assays:
[1] = test system: patient with systemic lupus erythematosus; experiment: Previous therapies for pain in extremities of the lupus patient; format: in vivo, human; conditions: previous therapies before degarelix
Description: Due to their painful condition, they have been followed up by a pain clinic. They were offered a tricyclic antidepressant, amitriptyline 25 mg in March 2014 for their painful condition.

[2] = test system: patient with colitis; conditions: week 2 after an infliximab infusion, literature; cited from earlier work
[3] = test system: patient with ankylosing spondylitis; experiment: Treatment of ankylosing spondylitis patient (BASDAI, laboratory variables); format: in vivo, human; conditions: AS patient
Text: Diagnosed with ankylosing spondylitis in 1984, HLAB27 positive, with repeated iridocyclitis. Used non-steroidal anti-inflammatory drugs previously. They were offered the TNF-alpha inhibitor Golilimumab in 2010. Their disease activity score was 8.9 in October 2010 (see below for explanation of disease activity score) on initiating Golilimumab; by the June 2012 this score had reduced to 6.6, but by May 2013 the effect had worn off and their score was 7.6. May 2013, they initiated Enbrel treatment, but their disease activity increased from 7.6 to 8.3. Due to their poor response to TNF-alpha therapy, they were offered the GnRH antagonist Degarelix in September 2014.
Disease activity in ankylosing spondylitis is measured by the BASDAI (Bath Ankylosing Spondylitis Disease Activity Index1), has been extensively validated in clinical trials, 2, 3 and is one of the most commonly used outcome measures in clinical trials. This is a componsite index that evaluates fatigue, axial and peripheral pain, stiffness and enthesopathy. Their BASDAI was at 8.7 at baseline. In September 2014 they received their first dose of Degarelix 240 mg sc. By 2 weeks, their BASDAI had reduced to 6.8, and by 6 weeks it had reduced to 5.8. This is the lowest BASDAI score they have ever had since we first started using this method of assessment 4 years ago in 2010. Their morning stiffness lasted 4 hours at baseline, by 6 weeks their morning stiffness had reduced to 2 hours. They had their second dose of Degarelix 80 mg s.c in October 2014. Lumbar flexion and maximum arm abduction were increased after 6 weeks of treatment.
Response to therapy in clinical practice is defined as improvement of 2 units or 50% on a 0-10 scale of the BASDAI, and expert opinion that the treatment should be continued. Their reduction by 6 weeks was 2.9 units, and 7.1 units with an 82% BASDAI score improvement by 9 weeks, and we shall continue treatment. A BASDAI 50% improvement is defined as a major clinical response. […] For comparison, approximately 50-60% of patients achieve a BASDAI 50 by 12 weeks on TNF inhibitors (4). Their ESR has decreased from 46 mm to 23 mm, which is their lowest ESR reading in 19 years. […] By 9 weeks of GnRH antagonist therapy, their kidney function has normalized, and fasting glucose reduced from 7.4 to 6.5 mmol/L. By 3 months, the effect on their ankylosing spondylitis remained, creatinine was at 98 umol/L, with a glomerular filtration rate of 66 ml/min/1.73 m2 in December 2014.

[4] = test system: patient with systemic sclerosis; conditions: Cyclophosphamide trial, literature, cited from earlier work
[5] = test system: patient with lithium induced psoriasis; conditions: 15 patients with psoriasis taking lithium, pretreatment, literature; cited from earlier work
[6] = test system: patient with spondyloarthritis; experiment: Example treatment of spondyloarthritis using Relugolix; format: in vivo, human
Description: • person with spondyloarthritis with disease duration of 5 years. Experimental Treatment • Is offered experimental GnRH antagonist therapy, Relugolix 400 mg daily for 12 weeks. Assessment of Response at 4 Months • Disease activity in ankylosing spondylitis/spondyloarthritis is measured by the BASDAI score. Their BASDAI is 5 at baseline.

[7] = test system: patient with seropositive rheumatoid arthritis; experiment: Example treatment of RA using oral GnRH antagonists (DAS); format: in vivo, human
Description: • person with seropositive rheumatoid arthritis with disease duration of 10 years. • Fulfills ACR 2010 classification criteria for rheumatoid arthritis. Experimental Treatment • Is offered experimental GnRH antagonist therapy, Elagolix 550 mg daily for 12 weeks.
• person with seropositive rheumatoid arthritis with disease duration of 10 years. • Fulfills ACR 2010 classification criteria for rheumatoid arthritis. Experimental Treatment • Is offered experimental GnRH antagonist therapy, Relugolix 250 mg daily for 12 weeks.
• person with seropositive rheumatoid arthritis with disease duration of 20 years. • Fulfills ACR 2010 classification criteria for rheumatoid arthritis. Experimental Treatment • Treated with a spiroindoline derivative as a GnRH antagonist orally 200 mg daily for 12 weeks.

[8] = test system: patients with rheumatoid arthritis; conditions: AGRA study, 5 days, Kass et al. 2014; cited from earlier work
[9] = test system: mice; experiment: Animal study of preventing age related inflammation; format: in vivo; conditions: 0.5 mg/kg daily with or without gonadal hormone replacement, vs placebo
Description: An animal study is conducted with 40 fertile female mice aged approximately 6-20 months in a control group (group 1) receiving placebo, 40 age and sex matched mice receiving a drug that reduces the activity of GnRH (group 2), such as Cetrorelix 0.5 mg/kg daily, and 40 age and sex matched mice receiving the same GnRH inhibitor as group 2, but with the additional replacement of gonadal hormone (oestrogen) to age adjusted pre-chosen levels. All mice are followed prospectively, and evaluated for systemic inflammation markers, atherosclerosis, osteoporosis, LDL, and age at death. The same three interventions and assessments are carried out in three groups of male mice with 40 male mice in each group, aged approximately 6-20 months, replacing the gonadal hormone testosterone to pre-chosen levels in group 3. Mice treated with a drug that reduces the activity of GnRH, such as Cetrorelix 0.5 mg/kg daily with or without the replacement of gonadal hormone (preferably with) reach a higher age at death compared with mice in the placebo groups. These mice also show less atherosclerosis, osteoporosis and systemic inflammation than mice in the placebo groups.

[10] = test system: patients with active longstanding RA; experiment: Double-blinded randomised study of cetrorelix vs placebo in RA (NCT00667758), serum P1NP; format: in vivo, human
Description: In this double-blinded, single-site study in Norway (ClinicalTrials.gov NCT00667758), 99 patients with active longstanding RA, were randomised to predefined intention-to-treat populations using computer-generated allocation (1:1) in dynamic blocks stratified for sex. Patients were assigned to subcutaneous cetrorelix (n=48) (5 mg days 1-2, 3 mg days 3-5) or placebo (n=51). P1NP was measured on day 10. We investigated serum P1NP between groups, a predefined secondary endpoint. Detailed efficacy and safety data are presented separately.

[11] = test system: patient with seropositive rheumatoid arthritis; experiment: Treatment of rheumatoid arthritis using Cetrorelix; format: in vivo, human; conditions: RA patient
Description: • person with seropositive rheumatoid arthritis with disease duration of 10 years. • Fulfilled ACR 2010 classification criteria for rheumatoid arthritis. Experimental Treatment • Had tried all therapies available previously without effect. • Offered experimental GnRH antagonist therapy, Cetrorelix in 0.5 mg sc daily in October 2014, then 0.75 mg sc daily in December 2014.

[12] = test system: patient with osteoarthritis of both knees; experiment: Intra-articular GnRH inhibiting treatment in osteoarthritis; format: in vivo, human; conditions: intra-articular 1 mg into both knees, 2 week post injection
Text: • person with osteoarthritis of both knees diagnosed by x-ray 10 years ago • Has had synovitis secondary to osteoarthritis in both knees for the last month, confirmed by synovitis on ultrasound. Experimental Treatment • In order to treat the secondary inflammation as a result of their knee osteoarthritis, they are offered intra-articular GnRH antagonist treatment, for example Cetrorelix lmg injected into both knees. Subcutaneous Cetrorelix for injection can be used. Assessment of Response • Before and 2 week post injection ultrasound images are taken to show a decrease in synovitis in the knee joint.

Compound: COc1c(C)c2c(c(O)c1C/C=C(\C)CCC(=O)OCCN1CCOCC1)C(=O)OC2 [mycophenolate mofetil]
- effect on pain in extremities [1]: not effective

Compound: CN(C)CCC=C1c2ccccc2CCc2ccccc21 [amitriptyline]
- effect on pain in extremities [1]: no effect

Compound: CC(C)C[C@H](CN)CC(=O)O [pregabalin]
- effect on pain in extremities [1]: no effect

Compound: infliximab: anti-tumour necrosis factor-α
- Fecal calprotectin concentration [2]: decreases significantly

Compound: Cn1cnc([N+](=O)[O-])c1Sc1ncnc2nc[nH]c12 [azathioprine]
- effect on pain in extremities [1]: not effective

Compound: Enbrel
- disease activity (BASDAI) ([3]; May 2013, on initiating Enbrel): 7.6
- disease activity (BASDAI) ([3]; after Enbrel treatment): 8.3

Compound: O=P1(N(CCCl)CCCl)NCCCO1 (stereo not drawn) [Cyclophosphamide]
- digital ulcers, average ([4]; over a period of 12 months): 9 ulcers
- digital ulcers, average ([4]; start): 7 ulcers

Compound: O[C@H]1[C@H](O)[C@@H](O)[C@H](O)[C@@H](O)[C@H]1O [inositol]
- median PASI score [5]: 4.9

Compound: Golilimumab: TNF-alpha inhibitor
- disease activity score (BASDAI) ([3]; June 2012 on Golilimumab): 6.6
- disease activity score (BASDAI) ([3]; May 2013 on Golilimumab, effect worn off): 7.6
- disease activity score (BASDAI) ([3]; October 2010, on initiating Golilimumab): 8.9

Compound: NCC1(CC(=O)O)CCCCC1 [gabapentin]
- effect on pain in extremities [1]: no effect

Compound: CONC(=O)Nc1ccc(-c2sc3c(c2CN(C)C)c(=O)n(-c2ccc(OC)nn2)c(=O)n3Cc2c(F)cccc2F)cc1 [Relugolix]
- BASDAI ([6]; Relugolix 400 mg daily, at 12 weeks (remission)): 1.2
- BASDAI ([6]; baseline): 5
- Eular response ([7]; Relugolix 250 mg daily for 12 weeks, assessment at 4 months): Good Eular Response
- Disease activity score (DAS) ([7]; Relugolix 250 mg daily for 12 weeks, assessment at 4 months (remission)): 2.5
- Disease activity score (DAS) ([7]; before Relugolix): 3.5

Compound: CN(Cc1cnc2nc(N)nc(N)c2n1)c1ccc(C(=O)N[C@@H](CCC(=O)O)C(=O)O)cc1 [methotrexate]
- effect on pain in extremities [1]: not effective

Compound: CC(=O)N[C@H](Cc1ccc2ccccc2c1)C(=O)N[C@H](Cc1ccc(Cl)cc1)C(=O)N[C@H](Cc1cccnc1)C(=O)N[C@@H](CO)C(=O)N[C@@H](Cc1ccc(O)cc1)C(=O)N[C@H](CCCNC(N)=O)C(=O)N[C@@H](CC(C)C)C(=O)N[C@@H](CCCNC(=N)N)C(=O)N1CCC[C@H]1C(=O)N[C@H](C)C(N)=O [Cetrorelix] (Ac-[d2Nal][dPhe(4-Cl)][d3Pal]SY[dCit]LRP[dA]-NH2)
- TNF-α [8]: possible reduction
- primary end-point with regard to clinical response [8]: did not meet the primary end-point
- age at death [9]: higher
- atherosclerosis, osteoporosis and systemic inflammation [9]: less
- P1NP mean difference vs placebo ([10]; by day 10, 95% CI −6.62, −0.29, p=0.033): -3.45 µg/L
- P1NP change ([10]; cetrorelix group (n=48), 5 mg days 1-2, 3 mg days 3-5, by day 10): -4.21 µg/L
- disease activity markers and TNF-α (log pg/mL) ([10]; cetrorelix vs placebo): significant reductions
- CRP ([11]; at 12 weeks): 18 mg/L
- ESR ([11]; at 12 weeks): 28 mm
- rheumatoid factor level ([11]; at 12 weeks): 111 kIU/L
- Disease activity score (DAS) ([11]; at 12 weeks, 0.5 then 0.75 mg sc daily): 5.5
- CRP ([11]; before Cetrorelix): 41 mg/L
- Disease activity score (DAS) ([11]; before Cetrorelix): 6.1
- ESR ([11]; before Cetrorelix): 35 mm
- rheumatoid factor level ([11]; before Cetrorelix): 137 kIU/L
- synovitis in the knee joint on ultrasound [12]: decrease
